# A melting point compilation (Tetko et al.; mined from patent text by program, amines drawn as free bases though some values may be those of a salt)
row,melting point [°C],Structure (SMILES)
1,122 to 124,CC(C)c1csc(/C=C/c2cccc(NC(=O)Cc3cccc(CC(=O)O)c3)c2)n1
2,176 to 180,COc1cc(OC)nc(NC(=O)NS(=O)(=O)c2c(C)nsc2OCC(Cl)(Cl)Cl)n1
3,178 to 180,NNc1cc2c(nn1)CCN(C(=O)c1cccc(Cl)c1)C2
4,150 to 154,COc1ccc(-c2cc(OC3SCC(O)C(O)C3O)ccn2)cc1 (centres undefined)
5,239 to 243,COc1cccc2c1C(=O)c1ccccc1C2(CC(=O)O)CC(=O)O
6,185 to 186,COc1ccc(C2=NN(C3CCN(S(=O)(=O)c4ccc(Cl)cc4)CC3)C(=O)CC2)cc1OC
7,140,CCCc1nc(SC)c(C(O)CO)n1Cc1ccc(-c2ccccc2S(=O)(=O)NC(=O)NCc2ccccc2)cc1 (centres undefined)
8,210 to 211,CN(C(=O)c1cnc(N2CC(C)(C)NC2=O)nc1N)c1cccc(C(F)(F)F)c1
9,116 to 117,O=C(NC1CC1)C(O)=CC(=O)c1ccc(Cc2ccc(F)cc2)o1
10,250 to 255,CC(=O)c1c(-c2ccncc2)[nH]c(-c2ccncc2)c1C(F)(F)F
11,85 to 86,CC(C)n1c(=Nc2ccccc2)sc2ncccc2c1=O
12,170 to 172,CCC1c2cccn2-c2ccc(Cl)cc2N1S(=O)(=O)c1ccc(O)c(C)c1 (centres undefined)
13,170,O=C(Cc1ccccc1N1CCCC1)N1C[C@@H]2[C@H](F)CCC(c3ccccc3)(c3ccccc3)[C@@H]2C1
14,216 to 218,C1=C(/C=C/c2ccsc2)CCN(Cc2nc3ccccc3[nH]2)C1
15,101 to 103,CCC(OC)(c1cccc(O)c1)c1nccs1 (centres undefined)
16,131 to 133,Nc1cccnc1C(=O)NO
17,270 to 273,CCc1n[nH]c2cc(-c3nn(C(C)c4oc5ccccc5c(=O)c4-c4cccc(F)c4)c4ncnc(N)c34)ccc12 (centres undefined)
18,164 to 167,Cc1cc(Oc2ncc(C(F)(F)F)cc2Cl)nn1C(=O)Nc1ccc(C(F)(F)F)cc1
19,157 to 158,Cc1c(C)c2c(c(C)c1NC(=O)NC(C)(C)CO)C(c1ccc(C(C)C)cc1)CO2 (centres undefined)
20,> 208,CCCCc1nn(-c2cc(NC(=O)NCCC)ccc2Cl)c(=O)n1Cc1ccc(-c2ccccc2S(=O)(=O)NC(=O)c2ccccc2Cl)cc1
21,70 to 72,CCCCCCOc1nc(-c2ccccc2)sc1-c1ccccc1
22,249 to 251,COc1ccc2[nH]c(=O)[nH]c2c1
23,124 to 125,Cn1ccnc1S(=O)(=O)CC(=O)C12CC3CC(CC(C3)C1)C2
24,77,CCCc1c(-c2cccnn2)ssc1=S
25,142,CC(=O)c1ccc(Cl)c(S(=O)(=O)Nc2ccccc2)c1

row,melting point [°C],Structure (SMILES)
1,103 to 104,Brc1ccc(C2(c3ccc(Br)cc3)OCCO2)cc1
2,75 to 76,CNC1=NN(c2cccc(Cl)c2)CC1C (centres undefined)
3,170 to 171,CN(C(=O)Nc1ccc2ccccc2c1)c1cccc(-c2ccc(CCC(=O)O)cc2)c1
4,183 to 185,Nc1cccc2c1CN(C(CCC(=O)O)C(=O)O)C2=O (centres undefined)
5,105 to 107,CC(C)Cc1nn(C)c(=O)c2c(S(=O)(=O)CCCO)c(Cc3ccccc3)sc12
6,135 to 138,Nc1ncc(Sc2ccc(C(F)(F)F)cn2)s1
7,162 to 164,Cc1ccc(C(=O)c2cc(Br)c(CC(=O)O)n2C)cc1
8,51 to 52,Cc1ccccc1CNCCNCc1ccccc1C
9,107 to 108,COC(=O)CCCC(=O)N(CCc1c[nH]c2ccccc12)Cc1ccccc1
10,78 to 79,COc1ccccc1N1CCC(CNC[C@H]2COc3ccccc3O2)CC1
11,47 to 48,O=Cc1ccc(Cl)cc1O
12,170 to 172,COC(=O)c1ccccc1S(=O)(=O)NC(=O)Nc1nc(N)cc(Cl)n1
13,110 to 112,Nc1ncc(C(F)(F)F)cc1[N+](=O)[O-]
14,199 to 200,COc1nc(NC(=O)NS(=O)(=O)c2ccccc2OC(Cl)=CCl)nc(OC)n1
15,71 to 74,COC(=O)c1snc(-c2cc(C(F)(F)F)cc(C(F)(F)F)c2)c1C(=O)OC
16,88 to 89,C[Si](C)(C)OC(CCl)(Cn1ccnc1)c1ccc(F)cc1F (centres undefined)
17,96 to 99,COc1cc2c(cc1OC)C(CSc1nnnn1C)NCC2 (centres undefined)
18,136 to 138,CC(=O)Nc1c([N+](=O)[O-])cnn1-c1c(F)c(F)c(C(F)(F)F)c(F)c1F
19,162 to 163,CC(=O)SCC(Cc1ccccc1)C(=O)Nc1cccc(C(=O)O)c1C (centres undefined)
20,117 to 118,CCOC(=O)C1CCc2c([nH]c3ccc(C)cc23)C1 (centres undefined)
21,> 300,COc1cc2cc3c(Nc4ccc(Sc5nccn5C)c(Cl)c4)c(C#N)cnc3cc2cc1OCCCCl
22,271,FC(F)(F)c1ccc(Cl)cc1CN1CCNc2ncc(-c3cn[nH]c3)cc21
23,330 to 332,O=C1CC(c2cccc3c2OCO3)=Nc2ccc(N3CCCC3)cc21
24,84 to 89,CCCCC(CC)Cn1c(C)cc(C)c(C#N)c1=O (centres undefined)
25,95 to 98,C=CCCCCCCOc1ccc(CCC(N)(CO)CO)cc1

row,melting point [°C],Structure (SMILES)
1,164 to 166,COc1ccc2c(c1)C(=O)NCCS2
2,138 to 139,CS(=O)(=O)c1ccc(C2=C(c3ccc(F)cc3)CCC2)cc1
3,220 to 223,CCC(=Nc1ccc2c(c1)C(=O)c1ccc(N=C(CC)N3CCOCC3)cc1C2=O)N1CCOCC1
4,205 to 209,COc1cc(OC)nc(NC(=O)NS(=O)(=O)c2nn(C)c3cccc(F)c23)n1
5,204 to 206,O=C(O)Cc1ccc(NC(=O)C(Cc2ccccc2)NS(=O)(=O)c2ccc(Cl)cc2)cc1 (racemic)
6,95 to 96,Cc1oc(-c2ccco2)nc1COc1ccc(CCl)cn1
7,> 300,N#Cc1ccc2c(c1)NC(=O)C2c1ncnc2c1cnn2C1CCCCC1 (centres undefined)
8,179 to 181,O=c1[nH]c2ccc(S(=O)CCN3CCC(Cc4ccccc4F)CC3)cc2o1 (centres undefined)
9,275 to 276,C=CCNC(=O)C=c1sc2n(c1=O)Cc1ccccc1N=2
10,102 to 104,CC(=O)n1cc(-c2ccccc2)nc1-c1ccccc1C
11,217,O=C(Nc1cc(S(=O)(=O)N(CCO)CCO)sc1Cl)c1cnn2c(C(F)(F)F)cc(-c3ccc(C(F)(F)F)cc3)nc12
12,65 to 67,CC(=O)Nc1cc(OC(F)F)c(OC(F)F)cc1[N+](=O)[O-]
13,198 to 199,O=C(O)c1cc(Cl)nn1-c1ncccc1Cl
14,123 to 124,OC(CCc1ccccc1)c1cnc2sc3c(n12)CCCCCC3 (centres undefined)
15,272 to 275,NC(=O)CN1C(=O)[C@@H](NC(=O)c2ccc(Cl)cc2)[C@H](c2ccccc2)Sc2ccccc21 (relative stereo)
16,173 to 175,CCn1ncc2c3onc(-c4ccc(C)cc4)c3cnc21
17,124,CCCCOC(=O)C(c1ccc(O)c(C(C)(C)C)c1)c1ccc(O)c(C(C)(C)C)c1
18,74 to 76,O=[N+]([O-])c1cnccc1-c1ccc(Cl)cc1
19,238,CNc1cc(-n2cc(C(=O)O)c(=O)c3cc(F)c(F)c(C)c32)c(F)cc1F
20,81.4,C#CCOc1cc(Oc2ccc(F)cc2)ncn1
21,277 to 279,O=C(O)c1ccc(-c2nc(-c3cc(C(F)(F)F)cc(C(F)(F)F)c3)co2)cc1
22,174 to 177,O=C(c1ccc(-c2ncn[nH]2)cc1Cl)N1Cc2cccn2Cc2ccccc21
23,177 to 180,COc1ccc(-c2nc(N3CCOCC3)c3sc(CN(C)c4ncc(C(=O)NO)cn4)cc3n2)cn1
24,125 to 130,Cn1cc(C2=C(c3c4n(c5ccccc35)CCC4)C(=O)OC2=O)c2ccccc21
25,112 to 114,CCCCOc1cccc(C[C@H](NC(C)=O)[C@H](O)CNCc2cccc(CC)c2)c1

row,melting point [°C],Structure (SMILES)
1,138 to 140,C=CCn1nc(C(=O)NC)cc1OCCCN1CCN(c2cccc3sccc23)CC1
2,74 to 75,COC(=O)NNC(=S)Cc1cccs1
3,120,Cc1cccc2c1NC(=O)CC2(C)C
4,293 to 294,Cc1ccc(N2C(=O)C(O)=C(C(=O)c3ccc(C(C)C)cc3)C2c2ccc(N3CCOCC3)cc2)nn1 (centres undefined)
5,227,CC(C)(C)COc1ccc(NC(=O)c2cc3ccccc3s2)cc1C#N
6,185 to 186,CS(=O)(=O)c1ccc(-c2cnn(Cc3ncc(Cl)s3)c(=O)c2-c2ccc(F)cc2)cc1
7,244 to 245,N#Cc1cc(-c2ccc3c(c2)C(C2CC2)(C2CC2)OC(=O)N3)cs1
8,73 to 74,CCCCCCCCC=CCCCCCCCC(=O)Cl
9,129 to 132,CCOC(=O)C(Cc1ccccc1[N+](=O)[O-])(NC=O)C(=O)OCC
10,70,CC(C)(C)OC(=O)Cc1ccc(CNC(=O)C2Cc3ccccc3N2S(=O)(=O)c2ccc(-c3cccc(C(F)(F)F)c3)cc2)cn1 (centres undefined)
11,62 to 64,COC(=O)c1scc(Cl)c1N
12,204 to 206,O=C(O)c1nc2n(n1)-c1ccccc1N(c1cccc(C(F)(F)F)c1)C2
13,124 to 125,C[C@@H](N1CC(=O)N(c2ccc(F)cc2F)C1=O)[C@@]1(c2ccc(F)cc2F)CO1
14,129 to 131,Cc1nc(-c2ccccc2)nc(-c2ccc(O)c(N)c2)c1C(=O)N1CCN(C)CC1
15,170,COc1ccc(-c2cc(=S)n(Cc3ccc(Cl)cc3Cl)nc2-c2ccc(OC)cc2)cc1
16,162 to 164,CON(C(=O)c1cn(C)nc1C(F)F)C(C)c1cccc(-c2ccc(Cl)c(Cl)c2)c1 (centres undefined)
17,149,O=c1[nH]c(=O)n(C2CC(Cl)C(CBr)O2)cc1C=CBr (centres undefined)
18,48 to 50,O=C(Sc1ccccn1)c1ccccc1
19,121 to 122,CNC(=NCCSCc1cc(OC)ccn1)NC#N
20,221 to 223,CN1Cc2c(-c3noc(CCl)n3)ncn2-c2ccsc2C1=O
21,190,Cc1cc(O)cc(C)c1Sc1ccccn1
22,80 to 82,CC(C)(C=O)N1C(=O)c2ccccc2C1=O
23,178 to 180,C#CCON=C(C(=O)O)c1nc(NC(=O)C(F)(F)F)sc1Cl

row,Structure (SMILES),melting point [°C]
1,CC(C)c1cccc(C(C)C)c1OC(=O)c1ccccc1,80 to 81
